Experimental data published in the CheMixHub viscosity set.

Assay: xn = mol fraction of the nth substance listed

COc1ccccc1N + CCCC(C)=O
viscosity [mPa·s], 100 kPa
Settings	x1 = 0.0932	x1 = 0.1824	x1 = 0.2643	x1 = 0.3512	x1 = 0.4494	x1 = 0.5391	x1 = 0.654	x1 = 0.7787	x1 = 0.8784
303.15 K	0.887	1.312	1.695	2.099	2.548	2.952	3.46	3.999	4.421
308.15 K	0.858	1.257	1.616	1.99	2.406	2.776	3.245	3.741	4.128
313.15 K	0.829	1.202	1.537	1.879	2.262	2.598	3.028	3.481	3.832

C1CCCCC1 + CCCCCC
Settings	viscosity [mPa·s]
298.1 K, 101 kPa, x1 = 0.2	0.356
298.1 K, 101 kPa, x1 = 0.4	0.409
298.1 K, 101 kPa, x1 = 0.5	0.442
298.1 K, 101 kPa, x1 = 0.6	0.484
298.1 K, 101 kPa, x1 = 0.8	0.609
298.15 K, 100 kPa, x1 = 0.201	0.34
298.15 K, 100 kPa, x1 = 0.4	0.4016
298.15 K, 100 kPa, x1 = 0.6	0.4934
298.15 K, 100 kPa, x1 = 0.8	0.6328
298.15 K, 101 kPa, x2 = 0.0684	0.791
298.15 K, 101 kPa, x2 = 0.1504	0.6857
298.15 K, 101 kPa, x2 = 0.212	0.6386
298.15 K, 101 kPa, x2 = 0.2942	0.5608
298.15 K, 101 kPa, x2 = 0.3691	0.5182
298.15 K, 101 kPa, x2 = 0.4469	0.4531
298.15 K, 101 kPa, x2 = 0.5365	0.4026
298.15 K, 101 kPa, x2 = 0.5903	0.3809
298.15 K, 101 kPa, x2 = 0.6702	0.3605
298.15 K, 101 kPa, x2 = 0.7634	0.3153
298.15 K, 101.33 kPa, x1 = 0.0907	0.3272
298.15 K, 101.33 kPa, x1 = 0.0958	0.317
298.15 K, 101.33 kPa, x1 = 0.1714	0.3405
298.15 K, 101.33 kPa, x1 = 0.1981	0.341
298.15 K, 101.33 kPa, x1 = 0.274	0.3831
298.15 K, 101.33 kPa, x1 = 0.2742	0.367
298.15 K, 101.33 kPa, x1 = 0.2966	0.367
298.15 K, 101.33 kPa, x1 = 0.3645	0.4001
298.15 K, 101.33 kPa, x1 = 0.3986	0.397
298.15 K, 101.33 kPa, x1 = 0.4469	0.4276
298.15 K, 101.33 kPa, x1 = 0.4498	0.4234
298.15 K, 101.33 kPa, x1 = 0.4972	0.436
298.15 K, 101.33 kPa, x1 = 0.533	0.4643
298.15 K, 101.33 kPa, x1 = 0.5873	0.4846
298.15 K, 101.33 kPa, x1 = 0.5972	0.484
298.15 K, 101.33 kPa, x1 = 0.6062	0.5023
298.15 K, 101.33 kPa, x1 = 0.6783	0.5445
298.15 K, 101.33 kPa, x1 = 0.6988	0.544
298.15 K, 101.33 kPa, x1 = 0.752	0.5887
298.15 K, 101.33 kPa, x1 = 0.7542	0.5997
298.15 K, 101.33 kPa, x1 = 0.7993	0.623
298.15 K, 101.33 kPa, x1 = 0.8297	0.6872
298.15 K, 101.33 kPa, x1 = 0.8977	0.73
298.15 K, 101.33 kPa, x1 = 0.9016	0.7533
298.15 K, 101.33 kPa, x1 = 0.9034	0.7347
298.15 K, 101.33 kPa, x1 = 0.9721	0.8499
303.15 K, 101 kPa, x1 = 0.1086	0.2975
303.15 K, 101 kPa, x1 = 0.2169	0.3225
303.15 K, 101 kPa, x1 = 0.3006	0.3441
303.15 K, 101 kPa, x1 = 0.4057	0.3765
303.15 K, 101 kPa, x1 = 0.5025	0.4141
303.15 K, 101 kPa, x1 = 0.6021	0.4621
303.15 K, 101 kPa, x1 = 0.7058	0.5242
303.15 K, 101 kPa, x1 = 0.7982	0.5925
303.15 K, 101 kPa, x1 = 0.8984	0.6941
303.15 K, 101.33 kPa, x1 = 0.0958	0.301
303.15 K, 101.33 kPa, x1 = 0.1981	0.324
303.15 K, 101.33 kPa, x1 = 0.2966	0.349
303.15 K, 101.33 kPa, x1 = 0.3986	0.378
303.15 K, 101.33 kPa, x1 = 0.4972	0.412
303.15 K, 101.33 kPa, x1 = 0.5972	0.454
303.15 K, 101.33 kPa, x1 = 0.6988	0.511
303.15 K, 101.33 kPa, x1 = 0.7993	0.58
303.15 K, 101.33 kPa, x1 = 0.8977	0.672
308.15 K, 101.33 kPa, x1 = 0.0958	0.288
308.15 K, 101.33 kPa, x1 = 0.1981	0.307
308.15 K, 101.33 kPa, x1 = 0.2966	0.33
308.15 K, 101.33 kPa, x1 = 0.3986	0.357
308.15 K, 101.33 kPa, x1 = 0.4972	0.389
308.15 K, 101.33 kPa, x1 = 0.5972	0.428
308.15 K, 101.33 kPa, x1 = 0.6988	0.479
308.15 K, 101.33 kPa, x1 = 0.7993	0.543
308.15 K, 101.33 kPa, x1 = 0.8977	0.623
323.15 K, 100 kPa, x1 = 0.201	0.266
323.15 K, 100 kPa, x1 = 0.4	0.309
323.15 K, 100 kPa, x1 = 0.6	0.3703
323.15 K, 100 kPa, x1 = 0.8	0.4573

CCC(C)=O + CCCCCC
298 K, 101.33 kPa
Settings	viscosity [mPa·s]
x1 = 0.055	0.3018
x1 = 0.2337	0.3032
x1 = 0.2985	0.3054
x1 = 0.4168	0.3122
x1 = 0.5063	0.3211
x1 = 0.6043	0.3277
x1 = 0.6943	0.3371
x1 = 0.8004	0.3496
x1 = 0.9053	0.3647

CCOC(=O)C(C)Br (configuration not stated) + CCCCCC
303.15 K, 101 kPa
Settings	viscosity [mPa·s]
x1 = 0.1996	0.372
x1 = 0.4039	0.5117
x1 = 0.5022	0.5973
x1 = 0.5991	0.7048
x1 = 0.7961	1.012
